Results: patent US12490739B2, “Synergistically effective fungicide composition comprising choline phosphonate and at least one additional fungicide” (BELCHIM CROP PROTECTION NV, priority 2019, dated 2025)

Assays:
Format in all cases: in vivo
Venturia inaequalis = experiment: Example 5 field trials, apple (Malus domestica var. Golden delicious) infected with scab; settings: 60 g a.c./ha
Podosphaera leucotricha = experiment: Example 13 field trials, apple (Malus domestica var. Gold Rush, var. Morgenduft Dallago) infected with powdery mildew; settings: 2640 g a.c./ha
Sphaerotheca fuliginea = experiment: Example 3 field trial, cucumber (Cucumis sativus var. Bosco) infected with powdery mildew, Italy; settings: 2080 g a.c./ha
Uncinula necator = experiment: Example 12 field trial, Vitis vinifera var. Carignan infected with powdery mildew, France; settings: 2320 g a.c./ha
Plasmopara viticola = experiment: Example 6 field trials, Vitis vinifera infected with downy mildew; settings: 120 g a.c./ha

`Cc1cc(OC(C)C)ccc1C(=O)C(C)(C)NC(=O)c1sccc1C` [ISO, N-[1,1-dimethyl-2-(4-isopropoxy-o-tolyl)-2-oxoethyl]-3-methylthiophene-2-carboxamide] was tested, and the “ISO f.e. (%)” value (Venturia inaequalis; PESINC, location 1 (France), 6 DA-A4, BBCH 72) was 13.3%, the “ISO f.e. (%)” value (Venturia inaequalis; PESINC, location 2 (Italy), 4 DA-A11, BBCH 75) was 4.1% and the “ISO f.e. (%)” value (Venturia inaequalis; PESINC, location 2 (Italy), 6 DA-A9, BBCH 74) was 12.1%. For the same compound, the “ISO f.e. (%)” value (Venturia inaequalis; PESINC, location 2 (Italy), 6 DA-A13, BBCH 77) was 5.5%, the “ISO f.e. (%)” value (Venturia inaequalis; PESINC, location 2 (Italy), 7 DA-A6, BBCH 72) was 16.8% and the “ISO f.e. (%)” value (Venturia inaequalis; PESINC, location 3 (Belgium), 31 DA-A9, BBCH 73) was 8.7%. The “ISO f.e. (%)” value (Venturia inaequalis; PESINC, location 3 (Belgium), 80 DA-A9, BBCH 73) was 2.2%, the “ISO f.e. (%)” value (Venturia inaequalis; PESSEV, location 2 (Italy), 4 DA-A11, BBCH 75) was 22.6% and the “ISO f.e. (%)” value (Venturia inaequalis; PESSEV, location 2 (Italy), 6 DA-A9, BBCH 74) was 25.3%. The “ISO f.e. (%)” value (Venturia inaequalis; PESSEV, location 2 (Italy), 6 DA-A13, BBCH 77) was 27.7% and the “ISO f.e. (%)” value (Venturia inaequalis; PESSEV, location 2 (Italy), 7 DA-A6, BBCH 72) was 32.9%.
`S1SSSSSSS1` [S, sulphur] was tested, and the “S f.e. (%)” value (Podosphaera leucotricha; PESINC, location 1 (France), 20 shoots, 7 DA-A5, BBCH 71) was 80.0%, the “S f.e. (%)” value (Podosphaera leucotricha; PESINC, location 1 (France), 100 leaves, 5 DA-A8, BBCH 74) was 88.1% and the “S f.e. (%)” value (Podosphaera leucotricha; PESINC, location 1 (France), 100 leaves, 6 DA-A6, BBCH 74) was 59.1%. For the same compound, the “S f.e. (%)” value (Podosphaera leucotricha; PESINC, location 1 (France), 100 leaves, 15 DA-A8, BBCH 76) was 80.7%, the “S f.e. (%)” value (Podosphaera leucotricha; PESINC, location 2 (Italy), 5 leaves, 5 DA-A6, BBCH 74) was 63.9% and the “S f.e. (%)” value (Podosphaera leucotricha; PESINC, location 2 (Italy), 40 shoots, 2 DA-A10, BBCH 74) was 62.4%. The “S f.e. (%)” value (Podosphaera leucotricha; PESINC, location 2 (Italy), 40 shoots, 6 DA-A5, BBCH 71) was 57.8%, the “S f.e. (%)” value (Podosphaera leucotricha; PESINC, location 2 (Italy), 40 shoots, 6 DA-A11, BBCH 74) was 59.4% and the “S f.e. (%)” value (Podosphaera leucotricha; PESSEV, location 1 (France), 100 leaves, 6 DA-A6, BBCH 74) was 64.1%. For the same compound, the “S f.e. (%)” value (Podosphaera leucotricha; PESSEV, location 1 (France), 100 leaves, 15 DA-A8, BBCH 76) was 88.2%, the “S f.e. (%)” value (Podosphaera leucotricha; PESSEV, location 2 (Italy), 5 leaves, 2 DA-A10, BBCH 74) was 82.1% and the “S f.e. (%)” value (Podosphaera leucotricha; PESSEV, location 2 (Italy), 5 leaves, 5 DA-A6, BBCH 74) was 72.7%. The “S f.e. (%)” value (Podosphaera leucotricha; PESSEV, location 2 (Italy), 5 leaves, 6 DA-A11, BBCH 74) was 84.4%, the “S f.e. (%)” value (Sphaerotheca fuliginea; PESINC curative, 7 DA-A2, BBCH 73) was 85.1% and the “S f.e. (%)” value (Sphaerotheca fuliginea; PESINC curative, 7 DA-A3, BBCH 76) was 87.5%. The “S f.e. (%)” value (Sphaerotheca fuliginea; PESINC curative, 7 DA-A4, BBCH 77) was 77.5%, the “S f.e. (%)” value (Sphaerotheca fuliginea; PESINC curative, 14 DA-A4, BBCH 78) was 58.9% and the “S f.e. (%)” value (Sphaerotheca fuliginea; PESINC, 7 DA-A2, BBCH 73) was 88.1%. For the same compound, the “S f.e. (%)” value (Sphaerotheca fuliginea; PESINC, 7 DA-A3, BBCH 76) was 95%, the “S f.e. (%)” value (Sphaerotheca fuliginea; PESINC, 7 DA-A4, BBCH 77) was 85.0% and the “S f.e. (%)” value (Sphaerotheca fuliginea; PESINC, 14 DA-A4, BBCH 78) was 75.2%. The “S f.e. (%)” value (Sphaerotheca fuliginea; PESINC, 21 DA-A4, BBCH 79) was 69.7%, the “S f.e. (%)” value (Sphaerotheca fuliginea; PESSEV curative, 7 DA-A2, BBCH 73) was 93.6% and the “S f.e. (%)” value (Sphaerotheca fuliginea; PESSEV curative, 7 DA-A3, BBCH 76) was 96%. The “S f.e. (%)” value (Sphaerotheca fuliginea; PESSEV curative, 7 DA-A4, BBCH 77) was 95%, the “S f.e. (%)” value (Sphaerotheca fuliginea; PESSEV curative, 14 DA-A4, BBCH 78) was 93.4% and the “S f.e. (%)” value (Sphaerotheca fuliginea; PESSEV, 7 DA-A2, BBCH 73) was 96.7%. For the same compound, the “S f.e. (%)” value (Sphaerotheca fuliginea; PESSEV, 7 DA-A4, BBCH 77) was 97.6%, the “S f.e. (%)” value (Sphaerotheca fuliginea; PESSEV, 14 DA-A4, BBCH 78) was 96.3% and the “S f.e. (%)” value (Sphaerotheca fuliginea; PESSEV, 21 DA-A4, BBCH 79) was 96.9%. For the same compound, the “S f.e. (%)” value (Uncinula necator; PESINC, 50 bunches, 14 DA-A3, BBCH 77) was 5.1%, the “S f.e. (%)” value (Uncinula necator; PESINC, 50 bunches, 14 DA-A3, BBCH 77, second listing (r34)) was 1.2% and the “S f.e. (%)” value (Uncinula necator; PESINC, 50 bunches, 14 DA-A5, BBCH 83) was 37.6%. The “S f.e. (%)” value (Uncinula necator; PESINC, 50 bunches, 14 DA-A5, BBCH 83, second listing (r36)) was 0%, the “S f.e. (%)” value (Uncinula necator; PESINC, 100 leaves, 14 DA-A3, BBCH 77) was 42.8% and the “S f.e. (%)” value (Uncinula necator; PESINC, 100 leaves, 14 DA-A3, BBCH 77, second listing (r32)) was 6.3%. The “S f.e. (%)” value (Uncinula necator; PESSEV, 50 bunches, 14 DA-A3, BBCH 77) was 50.8%, the “S f.e. (%)” value (Uncinula necator; PESSEV, 50 bunches, 14 DA-A3, BBCH 77, second listing (r28)) was 6.0% and the “S f.e. (%)” value (Uncinula necator; PESSEV, 50 bunches, 14 DA-A5, BBCH 83) was 14.2%. The “S f.e. (%)” value (Uncinula necator; PESSEV, 50 bunches, 14 DA-A5, BBCH 83, second listing (r30)) was 18.9%, the “S f.e. (%)” value (Uncinula necator; PESSEV, 100 leaves, 14 DA-A3, BBCH 77) was 18.7% and the “S f.e. (%)” value (Uncinula necator; PESSEV, 100 leaves, 14 DA-A3, BBCH 77, second listing (r26)) was 13.9%.
With `CCC(C)(NC(=O)c1cc(Cl)c(C)c(Cl)c1)C(=O)CCl` (racemic) [ZOX, (RS)-3,5-dichloro-N-(3-chloro-1-ethyl-1-methyl-2-oxopropyl)-ptoluamide] the “ZOX f.e. (%)” value (Plasmopara viticola; PESINC, location 1 (France, Negrette), 50 bunches, 1 DA-A6, BBCH 69) was 73.0%, the “ZOX f.e. (%)” value (Plasmopara viticola; PESINC, location 1 (France, Negrette), 50 bunches, 1 DA-A8, BBCH 75) was 18.0% and the “ZOX f.e. (%)” value (Plasmopara viticola; PESINC, location 1 (France, Negrette), 50 bunches, 16 DA-A9, BBCH 81) was 1.0%. For the same compound, the “ZOX f.e. (%)” value (Plasmopara viticola; PESINC, location 2 (France, Grenache), 50 bunches, 9 DA-A4, BBCH 71) was 10.0%, the “ZOX f.e. (%)” value (Plasmopara viticola; PESINC, location 2 (France, Grenache), 50 bunches, 9 DA-A4, BBCH 77) was 0.0% and the “ZOX f.e. (%)” value (Plasmopara viticola; PESINC, location 2 (France, Grenache), 100 leaves, 6 DA-A5, BBCH 77) was 0.0%. The “ZOX f.e. (%)” value (Plasmopara viticola; PESINC, location 2 (France, Grenache), 100 leaves, 9 DA-A4, BBCH 71) was 22.8%, the “ZOX f.e. (%)” value (Plasmopara viticola; PESINC, location 3 (Germany, Mueller-Thurgau), 50 bunches, 11 DA-A4, BBCH 75) was 48.8% and the “ZOX f.e. (%)” value (Plasmopara viticola; PESINC, location 3 (Germany, Mueller-Thurgau), 100 leaves, 7 DA-A8, BBCH 83) was 16.0%. The “ZOX f.e. (%)” value (Plasmopara viticola; PESINC, location 3 (Germany, Mueller-Thurgau), 100 leaves, 13 DA-A6, BBCH 83) was 18.7%, the “ZOX f.e. (%)” value (Plasmopara viticola; PESSEV, location 1 (France, Negrette), 50 bunches, 1 DA-A8, BBCH 75) was 75.2% and the “ZOX f.e. (%)” value (Plasmopara viticola; PESSEV, location 1 (France, Negrette), 50 bunches, 16 DA-A9, BBCH 81) was 51.7%. For the same compound, the “ZOX f.e. (%)” value (Plasmopara viticola; PESSEV, location 2 (France, Grenache), 50 bunches, 8 DA-A5, BBCH 77) was 21.4%, the “ZOX f.e. (%)” value (Plasmopara viticola; PESSEV, location 2 (France, Grenache), 50 bunches, 9 DA-A4, BBCH 71) was 81.3% and the “ZOX f.e. (%)” value (Plasmopara viticola; PESSEV, location 2 (France, Grenache), 50 bunches, 9 DA-A6, BBCH 79) was 1.3%. For the same compound, the “ZOX f.e. (%)” value (Plasmopara viticola; PESSEV, location 2 (France, Grenache), 100 leaves, 6 DA-A5, BBCH 77) was 15.1%, the “ZOX f.e. (%)” value (Plasmopara viticola; PESSEV, location 2 (France, Grenache), 100 leaves, 9 DA-A4, BBCH 71) was 67.7% and the “ZOX f.e. (%)” value (Plasmopara viticola; PESSEV, location 3 (Germany, Mueller-Thurgau), 50 bunches, 7 DA-A8, BBCH 83) was 48.9%. The “ZOX f.e. (%)” value (Plasmopara viticola; PESSEV, location 3 (Germany, Mueller-Thurgau), 50 bunches, 11 DA-A4, BBCH 75) was 80.2%, the “ZOX f.e. (%)” value (Plasmopara viticola; PESSEV, location 3 (Germany, Mueller-Thurgau), 50 bunches, 13 DA-A6, BBCH 83) was 49.2% and the “ZOX f.e. (%)” value (Plasmopara viticola; PESSEV, location 3 (Germany, Mueller-Thurgau), 100 leaves, 13 DA-A6, BBCH 83) was 52.1%.
